Results taken from patent US20260199350A1, “FLAVONES, QUINOLINONES, QUINAZOLINONES, AND AURONES, AND USES IN CK2-MEDIATED DISEASES” (Salk Institute for Biological Studies, priority 2022, published 2026).
Like-named read-outs stand apart in the source and are kept apart here.

Key:
IL-6 secretion = IL-6 secretion assay in astrocytes (Promega Lumit IL-6 kit); format: cell-based, human; details: Homo sapiens, Astrocyte; astrocytes stimulated with IL1-β, after 5 hours; read-out: IC50, secretion of IL-6
Procedure: IL-6 secretion assay. HCAs were plated at 20,000 cells per well in white clear bottom 96-well plates. Two to three days later, media was removed and replaced with media containing 10 ng/mL IL1B and compound dilution series. Five hours later, plates were processed using the Lumit IL-6 Assay Kit (Promega W6030) according to the manufacturer's instructions.
• ^1Radiometric kinase assay from Eurofins. Performed in astrocytes with a Promega Lumit IL-6 kit. A series of halogenated flavones was generated and assayed (Table 3).

CK2A1 = target: T1, CK2A1 (Homo sapiens, UniProt P68400); assay: Radiometric kinase assay (Eurofins), CK2A1; format: biochemical; details: read-out: CK2A1 RAD IC50
T1 construct: purchased Eurofins
Excerpt: FIGS. 4A-4F characterize flavones for in vitro and in-cell CK2 inhibition. […] Representative of two independent experiments. […] Nonlinear fit was used to calculate IC50. […] Nonlinear fit was used to calculate IC50. […] Nonlinear fit was used to calculate IC50. […] Normalized to DMSO, data are representative of three independent experiments.
(§1) • ^1Radiometric kinase assay from Eurofins. Performed in astrocytes with a Promega Lumit IL-6 kit.

CK2A2 = target: T2, CK2A2 (Homo sapiens, UniProt P19784); assay: Radiometric kinase assay (Eurofins), CK2A2; format: biochemical; details: read-out: CK2A2 RAD IC50
T2 construct: purchased Eurofins
Excerpt: as §1

T1 sequence (P68400 whole entry): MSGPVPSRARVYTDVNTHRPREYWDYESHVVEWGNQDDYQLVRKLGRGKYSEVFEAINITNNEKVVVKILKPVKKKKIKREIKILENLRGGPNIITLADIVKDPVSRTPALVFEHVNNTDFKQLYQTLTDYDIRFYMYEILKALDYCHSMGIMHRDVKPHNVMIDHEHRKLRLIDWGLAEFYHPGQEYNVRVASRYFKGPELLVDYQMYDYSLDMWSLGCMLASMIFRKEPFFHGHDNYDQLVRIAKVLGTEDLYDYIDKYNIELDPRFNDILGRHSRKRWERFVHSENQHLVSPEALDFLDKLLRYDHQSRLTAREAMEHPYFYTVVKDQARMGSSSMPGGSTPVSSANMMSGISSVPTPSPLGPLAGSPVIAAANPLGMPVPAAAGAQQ
T2 sequence (P19784 whole entry): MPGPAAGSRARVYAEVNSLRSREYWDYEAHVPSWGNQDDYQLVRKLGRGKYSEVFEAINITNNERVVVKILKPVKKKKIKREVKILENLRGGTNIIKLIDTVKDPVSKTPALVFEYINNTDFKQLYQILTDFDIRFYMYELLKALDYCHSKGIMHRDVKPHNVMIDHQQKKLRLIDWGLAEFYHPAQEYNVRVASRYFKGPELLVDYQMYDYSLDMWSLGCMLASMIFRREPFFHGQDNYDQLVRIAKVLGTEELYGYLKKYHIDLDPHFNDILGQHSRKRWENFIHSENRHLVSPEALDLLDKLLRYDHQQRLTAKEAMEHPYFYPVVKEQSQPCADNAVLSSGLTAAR

| IC50 (CK2A1; Table 5) [nM] | IC50 (CK2A2; Table 5) [nM] | IC50 (CK2A1; Table 12) [nM] | IC50 (CK2A2; Table 12) [nM] | SMILES | other results |
| --- | --- | --- | --- | --- | --- |
| – | – | – | – | O=C(O)c1ccc2c(c1)nc(Nc1cccc(Cl)c1)c1ccncc12 [CX-4945, silmitasertib, reference compound] | IC50 (IL-6 secretion): 315 nM |
| – | – | – | – | O=c1[nH]c(-c2ccc(O)c(Cl)n2)nc2c(Cl)cc(Cl)cc12 [Compound 963A] | IC50 (CK2A1; Table 9): 176 nM; IC50 (CK2A2; Table 9): 62 nM |
| – | – | – | – | O=c1[nH]c(-c2ccc(O)c(Cl)n2)nc2c(Br)cccc12 [Compound 964A] | IC50 (CK2A1; Table 9): 155 nM; IC50 (CK2A2; Table 9): 137 nM |
| 845 | 803 | – | – | O=c1cc(-c2ccc(O)c(O)c2)oc2c(Br)cc(Br)cc12 [Compound 1004A] | – |
| – | – | – | – | O=c1[nH]c(-c2cc(Br)c(O)cn2)nc2c(Br)cc(Br)cc12 [Compound 1005A] | IC50 (CK2A1; Table 9): 94 nM; IC50 (CK2A2; Table 9): 53 nM |
| – | – | – | – | O=c1[nH]c(-c2cc(Br)c(O)cn2)nc2c(Cl)cc(Cl)cc12 [Compound 1006A] | IC50 (CK2A1; Table 9): 182 nM; IC50 (CK2A2; Table 9): 85 nM |
| – | – | – | – | O=c1[nH]c(-c2cc(Br)c(O)cn2)nc2c(Br)cccc12 [Compound 1007A] | IC50 (CK2A1; Table 9): 380 nM; IC50 (CK2A2; Table 9): 327 nM |
| 52 | 29 | – | – | COc1cc(-c2cc(=O)c3cc(Br)c(OC)c(Br)c3o2)ncc1O [Compound 1040A] | – |
| 1890 | 1740 | – | – | COc1nc(-c2cc(=O)c3cc(Br)c(OC)c(Br)c3o2)ccc1O [Compound 1041A] | – |
| 2730 | 1180 | – | – | COc1cc2oc(-c3ccc(O)c(OC)n3)cc(=O)c2cc1Br [Compound 1058A] | – |
| 185 | 251 | – | – | COc1ccc2c(=O)cc(-c3ccc(O)c(OC)n3)oc2c1Br [Compound 1059A] | – |
| 203 | 445 | – | – | COc1cc(-c2cc(=O)c3cc(Br)c(OC)cc3o2)ncc1O [Compound 1063B] | – |
| 124 | 167 | – | – | COc1nc(-c2cc(=O)c3cc(Br)ccc3o2)ccc1O [Compound 1064A] | – |
| 401 | 364 | – | – | COc1cc(-c2cc(=O)c3cc(Br)ccc3o2)ncc1O [Compound 1065A] | – |
| – | – | – | – | O=c1cc(-c2cc(Br)c(O)cn2)[nH]c2c(Br)cc(Br)cc12 [Compound 1066A] | IC50 (CK2A1; Table 7): 2700 nM; IC50 (CK2A2; Table 7): 1290 nM |
| – | – | – | – | COc1cc(-c2cc(=O)c3cc(Br)cc(Br)c3[nH]2)ncc1O [Compound 1077A] | IC50 (CK2A1; Table 7): > 5000 nM; IC50 (CK2A2; Table 7): > 5000 nM |

| IC50 (CK2A1; Table 5) [nM] | IC50 (CK2A2; Table 5) [nM] | IC50 (CK2A1; Table 12) [nM] | IC50 (CK2A2; Table 12) [nM] | SMILES | other results |
| --- | --- | --- | --- | --- | --- |
| – | – | – | – | O=c1cc(-c2ccc(O)c(C(F)(F)F)c2)[nH]c2c(Br)cc(Br)cc12 [Compound 1095B] | IC50 (CK2A1; Table 7): 488 nM; IC50 (CK2A2; Table 7): 699 nM |
| – | – | – | – | O=c1cc(-c2ccc(O)c(Cl)c2)[nH]c2c(Br)cc(Br)cc12 [Compound 1103A] | IC50 (CK2A1; Table 7): 141 nM; IC50 (CK2A2; Table 7): 71 nM |
| – | – | > 5000 | > 5000 | O=C1/C(=C/c2ccc(O)c(C3CC3)c2)Oc2c(Br)cc(Br)cc21 [Compound 1131A] | – |
| > 5000 | > 5000 | – | – | O=c1cc(-c2ccc(O)c(C3CC3)c2)oc2c(Br)cc(Br)cc12 [Compound 1132A] | – |
| – | – | > 5000 | > 5000 | COc1c(Br)cc2c(c1Br)O/C(=C\c1ccc(O)c(C3CC3)c1)C2=O [Compound 1134A] | – |
| – | – | > 5000 | > 5000 | COc1ccc2c(c1Br)O/C(=C\c1ccc(O)c(C3CC3)c1)C2=O [Compound 1135B] | – |
| > 5000 | > 5000 | – | – | COc1c(Br)cc2c(=O)cc(-c3ccc(O)c(C4CC4)c3)oc2c1Br [Compound 1140A] | – |
| > 5000 | 4250 | – | – | O=c1cc(-c2ccc(O)c(C3CC3)c2)oc2c(Br)cccc12 [Compound 1141A] | – |
| 2790 | 2230 | – | – | COc1ccc2c(=O)cc(-c3ccc(O)c(C4CC4)c3)oc2c1Br [Compound 1142A] | – |
| – | – | > 5000 | > 5000 | O=C1/C(=C/c2ccc(O)cn2)Oc2c(Br)cc(Br)cc21 [Compound 1143A] | – |
| – | – | 178 | 109 | COc1nc(/C=C2\Oc3c(Br)cc(Br)cc3C2=O)ccc1O [Compound 1150A] | – |
| – | – | 1020 | 590 | COc1nc(/C=C2\Oc3c(cc(Br)c(OC)c3Br)C2=O)ccc1O [Compound 1159A] | – |
| – | – | 45 | 403 | COc1cc(/C=C2\Oc3c(Br)cc(Br)cc3C2=O)ncc1O [Compound 1163A] | – |
| – | – | 120 | 331 | COc1cc(/C=C2\Oc3c(cc(Br)c(OC)c3Br)C2=O)ncc1O [Compound 1164A] | – |
| – | – | 60 | 30 | O=C1/C(=C/c2cc(Br)c(O)cn2)Oc2c(Br)cc(Br)cc21 [Compound 1173A] | – |
| – | – | 86 | 27 | COc1c(Br)cc2c(c1Br)O/C(=C\c1cc(Br)c(O)cn1)C2=O [Compound 1174A] | – |
